Results taken from the NIST ThermoML archive (doi:10.1021/je700521t).

Test: xn = mol fraction of the nth substance listed
Details: 101 kPa, Liquid; for mass density: Vibrating tube method

CCCCn1cc[n+](C)c1.[O-][Cl+3]([O-])([O-])[O-] [1-butyl-3-methylimidazolium perchlorate] + CCO
Details | mass density [kg/m3] | viscosity [mPa·s]
283.15 K, x2 = 0.1 | 1249.3 | 255.52
283.15 K, x2 = 0.165 | 1239.4 | 181.83
283.15 K, x2 = 0.291 | 1216.6 | 87.42
283.15 K, x2 = 0.401 | 1192 | 50.26
283.15 K, x2 = 0.479 | 1173.6 | 35.48
288.15 K, x2 = 0.1 | 1245.7 | 188.52
288.15 K, x2 = 0.165 | 1235.7 | 136.86
288.15 K, x2 = 0.291 | 1212.8 | 68.04
288.15 K, x2 = 0.401 | 1188.3 | 40.89
288.15 K, x2 = 0.479 | 1169.8 | 29.17
293.15 K, x2 = 0.1 | 1242.1 | 142.2
293.15 K, x2 = 0.165 | 1231.9 | 105.92
293.15 K, x2 = 0.291 | 1208.9 | 54.9
293.15 K, x2 = 0.401 | 1184.6 | 33.49
293.15 K, x2 = 0.479 | 1166.1 | 24.41
293.15 K, x2 = 0.592 | 1129.6 | 12.98
293.15 K, x2 = 0.637 | 1110.4 | 11.66
293.15 K, x2 = 0.79 | 1022.6 | 5.38
293.15 K, x2 = 0.86 | 960.5 | 4.96
298.15 K, x2 = 0.1 | 1238.6 | 109.99
298.15 K, x2 = 0.165 | 1228 | 83.35
298.15 K, x2 = 0.291 | 1205 | 44.84
298.15 K, x2 = 0.401 | 1180.9 | 27.92
298.15 K, x2 = 0.479 | 1162.2 | 20.67
298.15 K, x2 = 0.592 | 1125.8 | 11.13
298.15 K, x2 = 0.637 | 1104.6 | 10.06
298.15 K, x2 = 0.79 | 1018.7 | 4.62
298.15 K, x2 = 0.86 | 956.7 | 4.22
303.15 K, x2 = 0.1 | 1235.1 | 86.43
303.15 K, x2 = 0.165 | 1224.1 | 66.48
303.15 K, x2 = 0.291 | 1199.8 | 36.75
303.15 K, x2 = 0.401 | 1177.2 | 23.38
303.15 K, x2 = 0.479 | 1158.3 | 17.56
303.15 K, x2 = 0.592 | 1122 | 9.6
303.15 K, x2 = 0.637 | 1102.7 | 8.71
303.15 K, x2 = 0.79 | 1014.8 | 4.03
303.15 K, x2 = 0.86 | 952.7 | 3.59
308.15 K, x2 = 0.1 | 1231.7 | 69.74
308.15 K, x2 = 0.165 | 1220.3 | 54.25
308.15 K, x2 = 0.291 | 1195.8 | 30.63
308.15 K, x2 = 0.401 | 1173.6 | 20.06
308.15 K, x2 = 0.592 | 1117.5 | 8.48
308.15 K, x2 = 0.637 | 1100.6 | 7.52
308.15 K, x2 = 0.79 | 1011 | 3.74
308.15 K, x2 = 0.86 | 948.7 | 3.16
313.15 K, x2 = 0.1 | 1228.2 | 56.98
313.15 K, x2 = 0.165 | 1216.2 | 44.76
313.15 K, x2 = 0.291 | 1193.1 | 26.13
313.15 K, x2 = 0.401 | 1169.9 | 17.38
313.15 K, x2 = 0.592 | 1114.8 | 7.43
313.15 K, x2 = 0.637 | 1096.7 | 6.66
313.15 K, x2 = 0.79 | 1007 | 3.46
313.15 K, x2 = 0.86 | 944.6 | 2.8
318.15 K, x2 = 0.1 | 1224.7 | 46.98
318.15 K, x2 = 0.165 | 1211.2 | 37.2
318.15 K, x2 = 0.291 | 1188.9 | 22.14
323.15 K, x2 = 0.1 | 1221.3 | 39.45
323.15 K, x2 = 0.165 | 1207.2 | 31.56
323.15 K, x2 = 0.291 | 1184.7 | 19.51
328.15 K, x2 = 0.1 | 1217.8 | 33.69
328.15 K, x2 = 0.165 | 1201 | 27.02
328.15 K, x2 = 0.291 | 1180.1 | 17.16
333.15 K, x2 = 0.1 | 1214.4 | 28.86
333.15 K, x2 = 0.165 | 1198.7 | 23.5
333.15 K, x2 = 0.291 | 1175.2 | 15.43
338.15 K, x2 = 0.1 | 1211 | 24.94
338.15 K, x2 = 0.165 | 1195.4 | 20.45
338.15 K, x2 = 0.291 | 1169.3 | 13.79
343.15 K, x2 = 0.1 | 1207.5 | 21.69
343.15 K, x2 = 0.165 | 1190.3 | 18.12
343.15 K, x2 = 0.291 | 1159.4 | –
